Target: αvβ6 integrin (Homo sapiens, UniProt P06756+P18564)
Test: IC50 binding activity (Examples 3 and 12)
Settings: Example 12, Table 17; azide-functionalized structures (2b, 6.1b, 7b, 23b) examined
Description: As reported in the following Table 1, IC50 binding data was obtained for the αvβ6 integrin ligands of Structures 1 and 2:
Azide-functionalized structures (i.e., Structures 1b and 2b) were examined for IC50 under conditions typically used and known in the art.
As reported in the following Table 17, additional IC50 binding data was obtained for the αvβ6 integrin ligands of Structures 2, 6.1, 7, and 23 used in certain Examples herein: […]

Chain of αvβ6 integrin (P06756 31-1048): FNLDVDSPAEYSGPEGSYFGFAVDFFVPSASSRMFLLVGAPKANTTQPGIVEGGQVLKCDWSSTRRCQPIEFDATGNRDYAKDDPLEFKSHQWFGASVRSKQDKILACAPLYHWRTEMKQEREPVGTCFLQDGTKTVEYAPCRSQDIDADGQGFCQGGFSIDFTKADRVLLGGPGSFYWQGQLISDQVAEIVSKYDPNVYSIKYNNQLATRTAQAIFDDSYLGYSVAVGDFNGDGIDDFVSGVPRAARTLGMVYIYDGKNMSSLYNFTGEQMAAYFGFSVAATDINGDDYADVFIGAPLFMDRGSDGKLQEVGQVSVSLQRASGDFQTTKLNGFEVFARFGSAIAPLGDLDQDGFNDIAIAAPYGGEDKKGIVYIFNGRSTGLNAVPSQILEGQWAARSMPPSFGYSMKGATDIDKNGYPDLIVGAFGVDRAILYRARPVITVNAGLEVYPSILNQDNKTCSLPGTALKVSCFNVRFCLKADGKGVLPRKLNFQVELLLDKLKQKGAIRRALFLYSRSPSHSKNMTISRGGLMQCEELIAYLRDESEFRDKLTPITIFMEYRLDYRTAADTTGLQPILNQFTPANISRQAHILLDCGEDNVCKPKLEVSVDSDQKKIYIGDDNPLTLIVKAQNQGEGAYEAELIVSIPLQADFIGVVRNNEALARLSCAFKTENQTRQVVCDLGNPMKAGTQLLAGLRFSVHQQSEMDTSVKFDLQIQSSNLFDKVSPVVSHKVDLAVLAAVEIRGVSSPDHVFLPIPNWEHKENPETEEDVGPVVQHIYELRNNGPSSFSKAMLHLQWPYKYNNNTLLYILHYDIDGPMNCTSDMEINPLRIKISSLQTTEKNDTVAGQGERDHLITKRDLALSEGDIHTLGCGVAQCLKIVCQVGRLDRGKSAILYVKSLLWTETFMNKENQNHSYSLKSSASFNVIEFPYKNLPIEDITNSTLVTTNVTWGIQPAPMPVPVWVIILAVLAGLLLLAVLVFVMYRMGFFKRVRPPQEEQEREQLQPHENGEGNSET
Chain of αvβ6 integrin (P18564 22-788): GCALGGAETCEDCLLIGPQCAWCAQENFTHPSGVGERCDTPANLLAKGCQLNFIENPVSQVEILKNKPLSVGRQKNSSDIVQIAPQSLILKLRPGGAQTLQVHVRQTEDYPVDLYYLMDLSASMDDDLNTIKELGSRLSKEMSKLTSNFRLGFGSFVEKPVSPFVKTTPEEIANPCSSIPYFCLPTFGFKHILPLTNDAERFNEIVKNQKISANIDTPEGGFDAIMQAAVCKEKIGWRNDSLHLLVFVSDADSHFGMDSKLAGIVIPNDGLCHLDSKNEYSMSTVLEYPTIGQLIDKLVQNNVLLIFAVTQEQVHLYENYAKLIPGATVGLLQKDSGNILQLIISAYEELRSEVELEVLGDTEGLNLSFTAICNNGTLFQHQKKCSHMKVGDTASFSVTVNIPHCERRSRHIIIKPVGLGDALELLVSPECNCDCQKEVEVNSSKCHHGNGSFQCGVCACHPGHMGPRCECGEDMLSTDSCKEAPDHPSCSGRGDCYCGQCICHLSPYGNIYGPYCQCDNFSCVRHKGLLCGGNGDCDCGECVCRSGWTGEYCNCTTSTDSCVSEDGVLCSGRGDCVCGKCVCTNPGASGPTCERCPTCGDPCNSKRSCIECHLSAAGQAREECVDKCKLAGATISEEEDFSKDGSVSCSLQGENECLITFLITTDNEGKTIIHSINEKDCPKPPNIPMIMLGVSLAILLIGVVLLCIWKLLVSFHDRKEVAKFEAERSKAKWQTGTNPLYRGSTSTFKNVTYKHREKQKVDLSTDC

SMILES: Cc1ccnc(NCCCC(=O)NCC(=O)N[C@@H](CC(=O)O)c2ccc(-c3ccc(OCCOCCOCCOCCOCCN=[N+]=[N-])c4ccccc34)cc2)c1 [Structure 6.1]
- IC50: 1.6 nM
